Measured values published in patent publication US7419984B2, “Pyrimidines and uses thereof” (Cell Therapeutics, Inc., priority 2002, dated 2008).

Biological target: T1, human LPAAT-β (Homo sapiens, UniProt O15120)
T1 construct: the full-length human LPAAT-β cDNA was amplified by PCR; poly-histidine tag (N); made in house; host or cells: Sf9 insect cells (baculovirus, pFastBac HTc); the membrane fraction was used as the enzyme
T1 sequence (O15120 24-278): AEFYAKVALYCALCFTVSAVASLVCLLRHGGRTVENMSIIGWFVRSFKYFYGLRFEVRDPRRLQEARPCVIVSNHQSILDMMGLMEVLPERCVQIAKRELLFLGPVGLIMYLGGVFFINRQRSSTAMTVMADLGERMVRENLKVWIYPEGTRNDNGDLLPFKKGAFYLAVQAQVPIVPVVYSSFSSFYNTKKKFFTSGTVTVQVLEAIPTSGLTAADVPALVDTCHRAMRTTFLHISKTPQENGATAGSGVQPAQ
Assay: LPAAT-β cell-free assay
Type: biochemical
Settings: Sf9 cell membrane overexpressing recombinant LPAAT-β
Outline: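 Membranes from Sf9 cells expressing His/myc-tagged full-length human LPAAT-β were used in HEPES-saline pH 7.5 with 1 mg/ml BSA. Compound was added from a 200 μM DMSO stock, and reaction with 18:1-CoA and sn-1-18:1 lysoPA (1 mM stocks) ran 25 min at RT. Released CoA was detected with DTNB at 405 nm; a radiometric variant used 200 μM [14C]18:1-CoA and 200 μM lysoPA.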

Row | IC50 [nM] | LPAAT-β cell-free assay (IC50, μM) | SMILES
1 | 95 |  | COc1ccc(Cl)cc1-c1cc(Nc2ccc(N)cc2)nc(N)n1 [Example 12, N*4*-(4-Amino-phenyl)-6-(5-chloro-2-methoxy-phenyl)-pyrimidine-2,4-diamine]
2 | 710 |  | Nc1nc(Nc2ccc(Cl)cc2)cc(-c2cccc(Cl)c2Cl)n1 [Example 118, 6-(2,3-Dichloro-phenyl)-N*4*-(4-chloro-phenyl)-pyrimidine-2,4-diamine]
3 | 410 |  | COc1ccc(Nc2cc(-c3cc(Cl)ccc3OC)nc(N)n2)cc1 [Example 7, 6-(5-Chloro-2-methoxy-phenyl)-N*4*-(4-methoxy-phenyl)-pyrimidine-2,4-diamine]
4 | 134 |  | Cc1ccc(Cl)cc1-c1cc(Nc2ccc(C(F)(F)F)cc2)nc(N)n1 [Example 29, 6-(5-Chloro-2-methyl-phenyl)-N*4*-(4-trifluoromethyl-phenyl)-pyrimidine-2,4-diamine]
5 | 82 |  | Nc1nc(Nc2ccc(C(F)(F)F)cc2)cc(-c2cc(Cl)ccc2Cl)n1 [Example 18, 6-(2,5-Dichloro-phenyl)-N*4*-(4-trifuoromethyl-phenyl)-pyrimidine-2,4-diamine]
6 | 2 |  | Nc1nc(Nc2ccc([N+](=O)[O-])cc2)cc(-c2cc(Br)ccc2OCc2ccccc2)n1 [Example 177, 6-(2-Benzyloxy-5-bromo-phenyl)-N*4*-(4-nitro-phenyl)-pyrimidine-2,4-diamine]
7 | 17 |  | Cc1nc(Nc2ccc3cn[nH]c3c2)cc(-c2cc(Cl)ccc2C)n1 [Example 43, [6-(5-Chloro-2-methyl-phenyl)-2-methyl-pyrimidin-4-yl]-(1H-indazol-6-yl)-amine]
8 | 5 |  | CCCCCCOc1ccc(Br)cc1-c1cc(Nc2ccc(Cl)cc2)nc(N)n1 [Example 145, 6-(5-Bromo-2-hexyloxy-phenyl)-N*4*-(4-chloro-phenyl)-pyrimidine-2,4-diamine]
9 | 120 |  | COc1ccc(Cl)cc1-c1cc(Nc2ccc(C)cc2)nc(N)n1 [Example 1, 6-(5-Chloro-2-methoxy-phenyl)-N*4*-p-tolyl-pyrimidine-2,4-diamine]
10 | 610 |  | Nc1nc(Nc2ccc(C(F)(F)F)cc2)cc(-c2cccc(Br)c2)n1 [Example 119, 6-(3-Bromo-phenyl)-N*4*-(4-trifluoromethyl-phenyl)-pyrimidine-2,4-diamine]
11 | 180 |  | CCc1ccc(Cl)cc1-c1cc(Nc2ccc(Cl)cc2)nc(N)n1 [Example 167, 6-(5-Chloro-2-ethyl-phenyl)-N*-4*-(4-chloro-phenyl)-pyrimidine-2,4-diamine]
12 | 93 |  | CCc1ccc(Cl)cc1-c1cc(Nc2ccc([N+](=O)[O-])cc2)nc(N)n1 [Example 169, 6-(5-Chloro-2-ethyl-phenyl)-N*-4*-(4-nitro-phenyl)-pyrimidine-2,4-diamine]
13 | 640 |  | Nc1nc(Nc2ccc(C(F)(F)F)cc2)cc(-c2cc(Cl)cc(Cl)c2)n1 [Example 112, 6-(3,5-Dichloro-phenyl)-N*4*-(4-trifuoromethyl-phenyl)-pyrimidine-2,4-diamine]
14 | 90 |  | Cc1ccc(Cl)cc1-c1cc(Nc2ccc3[nH]nnc3c2)nc(N)n1 [Example 125, N*4*-(1H-Benzotriazol-5-yl)-6-(5-chloro-2-methylphenyl)pyrimidine-2,4-diamine]
15 | 42 |  | CCOC(=O)c1cccc(Nc2cc(-c3cc(Cl)ccc3C)nc(N)n2)c1 [Example 114, 3-[2-Amino-6-(5-chloro-2-methyl-phenyl)-pyrimidin4-ylamino]-benzoic acid ethyl ester]
16 | 290 |  | Cc1ccc(Br)cc1-c1cc(Nc2ccc(CCCCO)cc2)nc(N)n1 [Example 101, 4-{4-[2-Amino-6-(5-bromo-2-methyl-phenyl)-pyrimidin4-ylamino]-phenyl}-butan-1-ol]

Row | IC50 [nM] | LPAAT-β cell-free assay (IC50, μM) | SMILES
17 |  | Lessactive | COc1ccc(Cl)cc1-c1nc(N)nc(Nc2ccc3cn[nH]c3c2)c1C [Example 51, 6-(5-Chloro-2-methoxy-phenyl)-5-methyl-N*4*-(1H-indazol-6-yl)-pyrimidine-2,4-diamine]
18 | 98 |  | CC(=NO)c1ccc(Nc2cc(-c3cc(Cl)ccc3Cl)nc(N)n2)cc1 [Example 154, 1-{4-[2-Amino-6-(2,5-dichloro-phenyl)-pyrimidin-4-yl-amino]-phenyl}-ethanone oxime]
19 | 950 |  | CCOc1ccc(Br)cc1-c1cc(Nc2cccc(C(N)=O)c2)nc(N)n1 [Example 138, 3-[2-Amino-6-(5-Bromo-2-ethoxy-phenyl)-pyrimidin-4yl-amino]-benzamide]
20 | 10 |  | CCOc1ccc(Cl)cc1-c1cc(Nc2ccc([N+](=O)[O-])cc2)nc(N)n1 [Example 46, 6-(5-Chloro-2-ethoxy-phenyl)-N*4*-(4-nitro-phenyl)-pyrimidine-2,4-diamine]
21 | 210 |  | Cc1ccc(Cl)cc1-c1cc(Nc2ccc(CCCCO)cc2)nc(N)n1 [Example 110, 4-{4-[2-Amino-6-(5-Chloro-2-methyl-phenyl)-pyrimidin-4-ylamino]-phenyl}-butan-1-ol]
22 | 94 |  | Cc1ccc(Nc2cc(-c3cc(Cl)ccc3C)nc(N)n2)cc1 [Example 26, 6-(5-Chloro-2-methyl-phenyl)-N*4*-p-tolyl-pyrimidine-2,4-diamine]
23 | 17 |  | CCOc1ccc(Cl)cc1-c1cc(Nc2ccc(Cl)cc2)nc(N)n1 [Example 55, 6-(5-Chloro-2-ethoxy-phenyl)-N*4*-(4-chloro-phenyl)-pyrimidine-2,4-diamine]
24 | 780 |  | CCOc1ccc(Cl)cc1-c1cc(Nc2ccc(OCCO)cc2)nc(N)n1 [Example 90, 2-{4-[2-Amino-6-(5-chloro-2-ethoxy-phenyl)-pyrimidin-4-ylamino]-phenoxy}-ethanol]
25 | 45 |  | Cc1ccc(Cl)cc1-c1cc(Nc2ccc(Br)cc2)ncn1 [Example 172, (4-Bromo-phenyl)-[6-(5-chloro-2-methyl-phenyl)-pyrimidin-4-yl]-amine]
26 | 16 |  | Nc1nc(Nc2ccc(CCO)cc2)cc(-c2cc(Cl)ccc2OCc2ccccc2)n1 [Example 158, 2-[4-{2-Amino-6-(2-benzyloxy-5-chloro-phenyl)-pyrimidin4-ylamino]-phenyl}-ethanol]
27 | 240 |  | Nc1nc(Nc2ccc(O)cc2)cc(-c2cc(Cl)ccc2Cl)n1 [Example 17, 4-[2-Amino-6-(2,5-dichloro-phenyl)-pyrimidin-4-ylamino]-phenol]
28 | 210 |  | CCc1cccc(Nc2cc(-c3cc(Cl)ccc3C)nc(N)n2)c1 [Example 115, 6-(5-Chloro-2-methyl-phenyl)-N*4*-(3-ethyl-phenyl)-pyrimidine-2,4-diamine]
29 | 6 |  | Nc1nc(Nc2ccc(C(F)(F)F)cc2)cc(-c2cc(Br)ccc2OCc2ccccc2)n1 [Example 153, 6-(2-Benzyloxy-5-bromo-phenyl)-N*4*-(4-trifluoromethyl-phenyl)-pyrimidine-2,4-diamine]
30 | 390 |  | CC(=NO)c1ccc(Nc2cc(-c3cc(Cl)cc(Cl)c3Cl)nc(N)n2)cc1 [Example 147, 1-{4-[2-Amino-6-(2,3,5-trichloro-phenyl)-pyrimidin-4-ylamino]-phenyl}-ethanone oxime]
31 | 200 |  | CCOc1ccc(Br)cc1-c1cc(Nc2ccc(B(O)O)cc2)nc(N)n1 [Example 159, 4-[2-Amino-6-(5-bromo-2-ethoxy-phenyl)-pyrimidin-4-ylamino]-phenyl-boronic acid]

Row | SMILES | IC50 [nM] | LPAAT-β cell-free assay (IC50, μM)
32 | CCCCOc1ccc(Br)cc1-c1cc(Nc2ccc(Cl)cc2)nc(N)n1 [Example 148, 6-(5-Bromo-2-butoxy-phenyl)-N*4*-(4-chloro-phenyl)-pyrimidine-2,4-diamine] | 5 | 
